The text below walks through data of patent US11339157B1, “4H-pyrrolo[3,2-c]pyridin-4-one derivatives” (Bayer Aktiengesellschaft, priority 2017, dated 2022).

SMILES strings stand for the structures. pIC50: −log10 of the molar value. “And” between values parts separate entries of the source, which are not always exact repeats. Identical values can stand only once. Like-named read-outs stand apart in the source and are kept apart here.

One assay has as its target Bub1 (Homo sapiens (Human), UniProt O43683). Nature of the assay: Bub1 kinase assay (TR-FRET, 10 μM ATP). Type of assay: biochemical. Conditions: mean, read-out: Bub1 kinase assay IC50 [mol/l] (mean). The text has this:
Bub1-inhibitory activities of compounds described in the present invention were quantified using a time-resolved fluorescence energy transfer (TR-FRET) kinase assay which measures phosphorylation of the synthetic peptide Biotin-Ahx-[…]—SEQ ID NO: 5 (C-terminus in amide form), purchased from e.g. Biosyntan (Berlin, Germany) by the (recombinant) catalytic domain of human Bub1 (amino acids 704-1085), expressed in Hi5 insect cells with an N-terminal His6-tag (SEQ ID NO: 9) and purified by affinity-(Ni-NTA) and size exclusion chromatography.
In a typical assay 11 different concentrations of each compound (0.1 nM, 0.33 nM, 1.1 nM, 3.8 nM, 13 nM, 44 nM, 0.15 μM, 0.51 μM, 1.7 μM, 5.9 μM and 20 μM) were tested in duplicate within the same microtiter plate. To this end, 100-fold concentrated compound solutions (in DMSO) were previously prepared by serial dilution (1:3.4) of 2 mM stocks in a clear low volume 384-well source microtiter plate (Greiner Bio-One, Frickenhausen, Germany), from which 50 nl of compounds were transferred into a black low volume test microtiter plate from the same supplier. […] The resulting mixture (5 μl final volume) was incubated at 22° C. during 60 min., and the reaction was stopped by the addition of 5 μl of an aqueous EDTA-solution (50 mM EDTA, in 100 mM HEPES pH 7.5 and 0.2% (w/v) bovine serum albumin) which also contained the TR-FRET detection reagents (0.2 μM streptavidin-XL665 [Cisbio Bioassays, Codolet, France] and 1 nM anti-phosho-Serine antibody [Merck Millipore, cat. #35-002] and 0.4 nM LANCE EU-W1024 labeled anti-mouse IgG antibody [Perkin-Elmer, product no. AD0077, alternatively a Terbium-cryptate-labeled anti-mouse IgG antibody from Cisbio Bioassays can be used]). The stopped reaction mixture was further incubated 1 h at 22° C. in order to allow the formation of complexes between peptides and detection reagents. Subsequently, the amount of product was evaluated by measurement of the resonance energy transfer from the Eu-chelate-antibody complex recognizing the Phosphoserine residue to the streptavidin-XL665 bound to the biotin moiety of the peptide. To this end, the fluorescence emissions at 620 nm and 665 nm after excitation at 330-350 nm were measured in a TR-FRET plate reader, e.g. a Rubystar or Pherastar (both from BMG Labtechnologies, Offenburg, Germany) or a Viewlux (Perkin-Elmer) and the ratio of the emissions (665 nm/[…]) was taken as indicator for the amount of phosphorylated substrate. The data were normalised using two sets of control wells for high-(=enzyme reaction without inhibitor=0%=Minimum inhibition) and low-(=all assay components without enzyme=100%=Maximum inhibition) Bub1 activity. IC50 values were calculated by fitting the normalized inhibition data to a 4-parameter logistic equation (Minimum, Maximum, IC50, Hill; Y=Max+(Min−Max)/(1+(X/IC50)Hill)).

A further assay deals with Ba/F3-EGFR-insSVD cells. Nature of the assay: Proliferation assay in BA/F3 (ins SVD) cells (Cell Titer-Glo). In kind it is cell-based. In outline:
(§1)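 Ba/F3 cells stably expressing retrovirally transduced EGFR-WT or EGFR-insSVD; WT cells plated with 10 ng/mL EGF, insSVD cells without EGF. Compound exposure 48 h at 37° C; viability read by CellTiter-Glo luminescence.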

The test system of a further assay is Ba/F3-EGFR-WT cells. Nature of the assay: Proliferation assay in BA/F3 (wild type) cells (Cell Titer-Glo). Type of assay: cell-based. Conditions: Mus musculus. An outline of the steps:
as §1

Assay [1] has as its target EGFR ins SVD (insertion of SVD between D770 and N771) (Homo sapiens, UniProt P00533, INS767SVD). Kind of assay: Exon 20-Mutant-EGFR(D770_N771insSVD) kinase assay (TR-FRET). In kind it is biochemical.
Method: Exon 20-Mutant-EGFR(D770_N771insSVD) Kinase Assay
Inhibitory activity of compounds of the present invention against an Epidermal Growth Factor Receptor (EGFR) with an insertion of the amino acids sequence SVD between D770 and N771 was quantified employing the TR-FRET based kinase activity assay as described in the following paragraphs.
For the assay 50 nl of a 100-fold concentrated solution of the test compound in DMSO was pipetted into either a black low volume 384 well microtiter plate or a black 1536 well microtiter plate (both Greiner Bio-One, Frickenhausen, Germany), 2 μl of a solution of EGFR in aqueous assay buffer [50 mM Hepes pH 7.0, 10 mM MgCl2, 1 mM dithiothreitol, 0.5 mM EGTA, 0.3 mM activated sodium ortho-vanadate, 0.005% (w/v) bovine serum albumin, 0.005% (v/v) Tween-20] were added and the mixture was incubated for 15 min at 22° C. to allow pre binding of the test compounds to the enzyme before the start of the kinase reaction. […] The concentration of EGFR was adjusted depending of the activity of the enzyme lot and was chosen appropriate to have the assay in the linear range, typical concentration was 15 pg/μl. The reaction was stopped by the addition of 3 μl of a solution of HTRF detection reagents (83.3 nM streptavidine-XL665 [Cisbio Bioassays, Codolet, France] and 1.67 nM PT66-Tb-Cryptate, a terbium-cryptate labelled anti-phospho-tyrosine antibody from Cisbio Bioassays [instead of the PT66 Tb cryptate PT66 Eu Chelate from Perkin Elmer can also be used]) in an aqueous EDTA-solution (133.3 mM EDTA, 0.2% (w/v) bovine serum albumin in 50 mM HEPES pH 7.5).
(§2) The resulting mixture was incubated 1 h at 22° C. to allow the binding of the biotinylated phosphorylated peptide to the streptavidine-XL665 and the PT66-Tb-Cryptate. Subsequently the amount of phosphorylated substrate was evaluated by measurement of the resonance energy transfer from the PT66-Tb-Cryptate to the streptavidine-XL665.
The target in assay [2] is EGFR ins ASV (insertion of ASV between V769 and D770). Kind of assay: Exon 20-Mutant-EGFR(V769_D770insASV) kinase assay (TR-FRET). In kind it is biochemical, human. The conditions noted are these: 2 mM ATP.
Method: Exon 20-Mutant-EGFR(V769_D770insASV) Kinase Assay
Inhibitory activity of compounds of the present invention against an Epidermal Growth Factor Receptor (EGFR) with an insertion of the amino acids sequence ASV between V769 and D770 was quantified employing the TR-FRET based kinase activity assay as described in the following paragraphs.
For the assay 50 nl of a 100-fold concentrated solution of the test compound in DMSO was pipetted into either a black low volume 384well microtiter plate or a black 1536 well microtiter plate (both Greiner Bio-One, Frickenhausen, Germany), 2 μl of a solution of EGFR in aqueous assay buffer [50 mM Hepes pH 7.0, 10 mM MgCl2, 1 mM dithiothreitol, 0.5 mM EGTA, 0.3 mM activated sodium ortho-vanadate, 0.005% (w/v) bovine serum albumin, 0.005% (v/v) Tween-20] were added and the mixture was incubated for 15 min at 22° C. to allow pre binding of the test compounds to the enzyme before the start of the kinase reaction. […] The concentration of EGFR was adjusted depending of the activity of the enzyme lot and was chosen appropriate to have the assay in the linear range, typical concentration was 2.5 pg/μl. The reaction was stopped by the addition of 3 μl of a solution of HTRF detection reagents (83.3 nM streptavidine-XL665 [Cisbio Bioassays, Codolet, France] and 1.67 nM PT66-Tb-Cryptate, an terbium-cryptate labelled anti-phospho-tyrosine antibody from Cisbio Bioassays [instead of the PT66 Tb cryptate PT66 Eu Chelate from Perkin Elmer can also be used]) in an aqueous EDTA-solution (133.3 mM EDTA, 0.2% (w/v) bovine serum albumin in 50 mM HEPES pH 7.5).
as §2
Where [3] appears, read: Mus musculus, BaF3, 48 h, Table 10, plated without EGF.
Where [4] appears, read: BaF3, 48 h, Table 10, plated with 10 ng/mL EGF.
Where [5] appears, read: 2 mM ATP, mean, read-out: EGFR ins SVD IC50 [mol/l] (mean).
Where [6] appears, read: Table 9, read-out: mutEGFR (D770_N771insSVD) kinase assay IC50.
[7] abbreviates: Mus musculus, BaF3, Table 10, plated without EGF, 48 h.
Where [8] appears, read: BaF3, Table 10, plated with 10 ng/mL EGF, 48 h.

Sequence of EGFR ins SVD (insertion of SVD between D770 and N771) (P00533 with tags, fused parts or gaps INS767SVD limits assumed): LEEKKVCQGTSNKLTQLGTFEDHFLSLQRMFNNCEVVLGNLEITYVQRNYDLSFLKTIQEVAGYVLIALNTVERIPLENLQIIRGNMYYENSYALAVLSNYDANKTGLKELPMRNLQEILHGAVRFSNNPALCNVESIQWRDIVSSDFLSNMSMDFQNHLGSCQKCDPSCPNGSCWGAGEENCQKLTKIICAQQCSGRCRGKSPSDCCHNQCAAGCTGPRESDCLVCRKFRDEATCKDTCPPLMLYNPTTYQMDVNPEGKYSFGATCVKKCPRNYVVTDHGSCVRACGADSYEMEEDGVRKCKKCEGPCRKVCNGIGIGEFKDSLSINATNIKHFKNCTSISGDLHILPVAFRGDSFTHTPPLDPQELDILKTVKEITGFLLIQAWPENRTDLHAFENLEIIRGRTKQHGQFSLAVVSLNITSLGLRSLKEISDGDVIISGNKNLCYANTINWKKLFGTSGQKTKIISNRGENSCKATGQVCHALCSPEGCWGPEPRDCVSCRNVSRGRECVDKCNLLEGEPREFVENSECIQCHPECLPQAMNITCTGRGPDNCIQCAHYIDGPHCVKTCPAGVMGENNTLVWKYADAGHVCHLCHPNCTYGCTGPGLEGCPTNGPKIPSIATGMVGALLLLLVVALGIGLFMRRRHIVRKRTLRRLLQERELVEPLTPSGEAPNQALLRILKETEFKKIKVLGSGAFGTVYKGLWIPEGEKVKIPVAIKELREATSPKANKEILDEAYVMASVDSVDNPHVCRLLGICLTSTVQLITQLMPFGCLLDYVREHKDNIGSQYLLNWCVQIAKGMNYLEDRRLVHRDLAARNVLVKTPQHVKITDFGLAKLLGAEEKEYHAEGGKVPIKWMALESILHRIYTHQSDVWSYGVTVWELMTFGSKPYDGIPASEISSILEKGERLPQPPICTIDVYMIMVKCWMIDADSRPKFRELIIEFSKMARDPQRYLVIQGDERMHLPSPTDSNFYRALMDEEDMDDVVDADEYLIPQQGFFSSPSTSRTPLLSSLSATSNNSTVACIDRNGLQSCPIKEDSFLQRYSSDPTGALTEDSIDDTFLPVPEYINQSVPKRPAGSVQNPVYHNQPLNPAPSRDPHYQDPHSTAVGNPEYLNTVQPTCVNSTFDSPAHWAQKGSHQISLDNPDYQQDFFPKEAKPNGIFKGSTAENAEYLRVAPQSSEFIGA
Sequence of Bub1 (O43683 704-1085): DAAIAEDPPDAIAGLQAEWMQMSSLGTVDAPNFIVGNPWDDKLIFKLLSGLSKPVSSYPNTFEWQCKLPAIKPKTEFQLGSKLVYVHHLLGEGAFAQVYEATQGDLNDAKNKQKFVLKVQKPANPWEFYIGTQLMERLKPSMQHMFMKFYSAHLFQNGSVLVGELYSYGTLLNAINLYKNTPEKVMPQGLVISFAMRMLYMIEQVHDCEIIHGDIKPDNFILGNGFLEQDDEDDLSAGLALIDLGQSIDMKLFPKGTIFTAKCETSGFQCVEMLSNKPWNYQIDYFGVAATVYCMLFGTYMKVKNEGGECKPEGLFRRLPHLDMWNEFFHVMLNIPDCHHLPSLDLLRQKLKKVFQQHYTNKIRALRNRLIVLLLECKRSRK

As for `COCCOc1cnccc1-c1[nH]c2c(c1Nc1ccccc1)C(=O)NCC2` [Example 1, 2-[3-(2-methoxyethoxy)pyridin-4-yl]-3-(phenylamino)-1,5,6,7-tetrahydro-4H-pyrrolo[3,2-c]pyridin-4-one], at Bub1, the pIC50 is 7.84.
In the case of `CC(C)(C)CCOc1cnccc1-c1[nH]c2c(c1Nc1cccc(F)c1)C(=O)NCC2` [Example 2, 2-[3-(3,3-dimethylbutoxy)pyridin-4-yl]-3-[(3-fluorophenyl)amino]-1,5,6,7-tetrahydro-4H-pyrrolo[3,2-c]pyridin-4-one], the pIC50 on Bub1 was 7.36; in the assay on Ba/F3-EGFR-insSVD cells (setting [3]) it was 8.17; in the assay on Ba/F3-EGFR-insSVD cells (Table 10, plated without EGF, 48 h), 8.13 and 8.06 and > 8.32; with Ba/F3-EGFR-WT cells (setting [4]) it was 5.73.
Regarding `CC(C)(COc1cnccc1-c1[nH]c2c(c1Nc1cccc(F)c1)C(=O)NCC2)N1CCOCC1` [Example 7, 3-[(3-fluorophenyl)amino]-2-{3-[2-methyl-2-(morpholin-4-yl)propoxy]pyridin-4-yl}-1,5,6,7-tetrahydro-4H-pyrrolo[3,2-c]pyridin-4-one], the pIC50 in assay [1] (setting [5]) was 9.14; in assay [1] (setting [6]), 8.95; on Bub1 it was 6.40; with Ba/F3-EGFR-insSVD cells (setting [7]), 6.34; in the assay with Ba/F3-EGFR-WT cells (setting [8]), 5.57.
For `CN1CCC[C@H]1COc1cnccc1-c1[nH]c2c(c1Nc1cccc(F)c1)C(=O)NCC2` [Example 8, 3-[(3-fluorophenyl)amino]-2-(3-{[(2S)-1-methylpyrrolidin-2-yl]methoxy}pyridin-4-yl)-1,5,6,7-tetrahydro-4H-pyrrolo[3,2-c]pyridin-4-one] the same measures were 9.51, 9.49, 7.18, 7.16 and 6.21.
For `COC(C)(C)COc1cnccc1-c1[nH]c2c(c1Nc1cc(F)cc(F)c1)C(=O)NCC2` [Example 10, 3-[(3,5-difluorophenyl)amino]-2-[3-(2-methoxy-2-methylpropoxy)pyridin-4-yl]-1,5,6,7-tetrahydro-4H-pyrrolo[3,2-c]pyridin-4-one], the pIC50 is above 10.14 in assay [1] (setting [5]), 7.91 at Bub1, 7.24 in the assay with Ba/F3-EGFR-insSVD cells (setting [3]) and 6.45 in the assay on Ba/F3-EGFR-WT cells (setting [4]). Also, in assay [1] (setting [6]), the IC50 is < 0.0725 nM (4×) and 0.133 nM.
On to `COCCOc1cnccc1-c1[nH]c2c(c1Nc1cccc(F)c1Br)C(=O)NCC2` [Example 12, 3-[(2-bromo-3-fluorophenyl)amino]-2-[3-(2-methoxyethoxy)pyridin-4-yl]-1,5,6,7-tetrahydro-4H-pyrrolo[3,2-c]pyridin-4-one], for which the pIC50 in assay [1] (setting [5]) and in assay [1] (setting [6]) was 10.07 throughout. The “EGFR ins ASV IC50 [mol] (mean)” value in assay [2] is 2.18e-10 mol.
In the case of `COCCOc1cnccc1-c1[nH]c2c(c1Nc1ccccc1OC(F)(F)F)C(=O)NCC2` [Example 14, 2-[3-(2-methoxyethoxy)pyridin-4-yl]-3-{[2-(trifluoromethoxy)phenyl]amino}-1,5,6,7-tetrahydro-4H-pyrrolo[3,2-c]pyridin-4-one], the pIC50 at Bub1 is 6.15; with Ba/F3-EGFR-insSVD cells (setting [3]), 5.98; with Ba/F3-EGFR-WT cells (setting [4]) it was 5.60.
For `COCCOc1cnccc1-c1[nH]c2c(c1Nc1cccc(F)c1OC)C(=O)NCC2` [Example 16, 3-[(3-fluoro-2-methoxyphenyl)amino]-2-[3-(2-methoxyethoxy)pyridin-4-yl]-1,5,6,7-tetrahydro-4H-pyrrolo[3,2-c]pyridin-4-one] the same measures were 6.84, 7.62 and 6.34.
For `COCCOc1cnccc1-c1[nH]c2c(c1Nc1cccc(F)c1OC(F)F)C(=O)NCC2` [Example 18, 3-{[2-(difluoromethoxy)-3-fluorophenyl]amino}-2-[3-(2-methoxyethoxy)pyridin-4-yl]-1,5,6,7-tetrahydro-4H-pyrrolo[3,2-c]pyridin-4-one], the pIC50 on Bub1 is 6.43.
For `COCCOc1cnccc1-c1[nH]c2c(c1Nc1cccc(F)c1CC(F)F)C(=O)NCC2` [Example 22, 3-{[2-(2,2-difluoroethyl)-3-fluorophenyl]amino}-2-[3-(2-methoxyethoxy)pyridin-4-yl]-1,5,6,7-tetrahydro-4H-pyrrolo[3,2-c]pyridin-4-one], the pIC50 at Bub1 is 6.95; in the assay on Ba/F3-EGFR-insSVD cells (setting [3]) it was 6.94; with Ba/F3-EGFR-WT cells (setting [4]), 5.81.
For the compound `COC(C)(C)COc1cnccc1-c1[nH]c2c(c1Nc1cccc(F)c1O)C(=O)NCC2` [Example 24, 3-[(3-fluoro-2-hydroxyphenyl)amino]-2-[3-(2-methoxy-2-methylpropoxy)pyridin-4-yl]-1,5,6,7-tetrahydro-4H-pyrrolo[3,2-c]pyridin-4-one], the pIC50 in assay [1] (setting [5]) and in assay [1] (setting [6]) was 9.27 each time. Besides, the “EGFR ins ASV IC50 [mol] (mean)” value in assay [2] came out at 6.34e-10 mol.
As for `CCOc1c(F)cccc1Nc1c(-c2ccncc2OCCOC)[nH]c2c1C(=O)NCC2` [Example 25, 3-[(2-ethoxy-3-fluorophenyl)amino]-2-[3-(2-methoxyethoxy)pyridin-4-yl]-1,5,6,7-tetrahydro-4H-pyrrolo[3,2-c]pyridin-4-one], the pIC50 is 6.64 at Bub1 and 5.64 in the assay with Ba/F3-EGFR-WT cells (setting [4]).
Turning to `COc1c(Nc2c(-c3ccncc3OCC(C)(C)OC)[nH]c3c2C(=O)NCC3)ccc(F)c1F` [Example 29, 3-[(3,4-difluoro-2-methoxyphenyl)amino]-2-[3-(2-methoxy-2-methylpropoxy)pyridin-4-yl]-1,5,6,7-tetrahydro-4H-pyrrolo[3,2-c]pyridin-4-one], the pIC50 was 6.70 on Bub1, 6.64 in the assay with Ba/F3-EGFR-insSVD cells (setting [3]) and 5.63 in the assay on Ba/F3-EGFR-WT cells (setting [4]).
For the compound `COc1c(F)cccc1Nc1c(-c2ccncc2OC(C)Cc2ccccc2)[nH]c2c1C(=O)NCC2` (centres unmarked) [Example 93, 3-(3-fluoro-2-methoxyanilino)-2-{3-[(1-phenylpropan-2-yl)oxy]pyridin-4-yl}-1,5,6,7-tetrahydro-4H-pyrrolo[3,2-c]pyridin-4-one], the pIC50 in assay [1] (setting [6]) was 9.56; in the assay on Ba/F3-EGFR-insSVD cells (setting [3]) it was 6.33; with Ba/F3-EGFR-WT cells (setting [4]), 5.43.
For `COC(C)(C)COc1cnccc1-c1[nH]c2c(c1Nc1cccc(F)c1C#N)C(=O)NCC2` [Example 94, 2-fluoro-6-({2-[3-(2-methoxy-2-methylpropoxy)pyridin-4-yl]-4-oxo-4,5,6,7-tetrahydro-1H-pyrrolo[3,2-c]pyridin-3-yl}amino)benzonitrile], the values for the pIC50 (in assay [1] (setting [6]); in the assay with Ba/F3-EGFR-insSVD cells (setting [3]); with Ba/F3-EGFR-WT cells (setting [4])) were 9.64, 7.26 and 5.34, respectively.
Turning to `COc1c(Cl)cccc1Nc1c(-c2ccncc2OC[C@@H]2CCCN2CC(F)(F)F)[nH]c2c1C(=O)NCC2` [Example 95, 3-(3-chloro-2-methoxyanilino)-2-(3-{[(2S)-1-(2,2,2-trifluoroethyl)pyrrolidin-2-yl]methoxy}pyridin-4-yl)-1,5,6,7-tetrahydro-4H-pyrrolo[3,2-c]pyridin-4-one], the pIC50 in assay [1] (setting [6]) was 9.73; with Ba/F3-EGFR-insSVD cells (setting [3]) it was 6.85; with Ba/F3-EGFR-WT cells (setting [4]) it was 5.63.
On the same counts, the results for `COc1c(Nc2c(-c3ccncc3OCCN(C)CC(F)(F)F)[nH]c3c2C(=O)NCC3)ccc(F)c1Cl` [Example 96, 3-(3-chloro-4-fluoro-2-methoxyanilino)-2-(3-{2-[methyl(2,2,2-trifluoroethyl)amino]ethoxy}pyridin-4-yl)-1,5,6,7-tetrahydro-4H-pyrrolo[3,2-c]pyridin-4-one] are 9.52, 7.30 and 5.83.
